Here are results for 11 compounds from ChEMBL document CHEMBL1201862, “PubChem BioAssay data set” (2004).

Test systems include Malme-3M; PC-3; SK-MEL-2; HCT-15; U-251; A549; HL-60; NCI-H226; SF-539; SN12C; MCF7; UO-31; MDA-MB-231; SK-OV-3; NCI/ADR-RES; K562; A498; IGROV-1; TK-10.
Common to all, as to assay: DTP human tumour cell line panel, 48 h

Each structure is given as a SMILES string. Values joined by “and” are separate entries in the source; they are usually repeats but may differ in a detail not shown here. Equal entries are not always repeated.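 How tested: cells in 96-well plates exposed to compound for 48 hours at five concentrations. GI50: concentration for 50% inhibition of growth.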 Active and inactive are the calls of the source. Rule as the data show it: active = GI50 up to about 1.1 µM and inactive = higher.

For `Cc1cc2c(O)c(c1)COCc1cc(C)cc(c1O)COCc1cc(C)cc(c1O)COC2`, the GI50 – broadly, the concentration giving 50% growth inhibition – is > 100 µM (inactive) in the assay with Malme-3M; > 100 µM (inactive) with PC-3; > 100 µM (inactive) in the assay on SK-MEL-2; more than 100 µM in the assay with HCT-15; > 100 µM (inactive) with U-251; > 100 µM (inactive) in the assay on A549. For the same compound, the GI50 with HL-60, in the assay on NCI-H226, in the assay on SF-539, in the assay with SN12C, in the assay on MCF7 and with UO-31 was > 100 µM (inactive) in each case. Also, the GI50 in the assay with MDA-MB-231 is 72.8 µM (inactive); in the assay with SK-OV-3, > 100 µM (inactive); in the assay with NCI/ADR-RES, > 100 µM (inactive); with K562 it was > 100 µM (inactive); with A498, > 100 µM (inactive).

Take `Cn1c(CO)ccc1-c1ccc(-c2ccc[se]2)[se]1`: the GI50 in the assay on Malme-3M is > 72.1 µM (inactive); with PC-3, > 90.4 µM (inactive); in the assay with SK-MEL-2, 41.1 µM (inactive); with HCT-15 it was 35.9 µM; with IGROV-1, 0.0384 µM (active); in the assay with A549, 17.1 µM (inactive). For the same compound, the GI50 is 21.8 µM (inactive) in the assay on HL-60; 0.244 µM (active) in the assay on NCI-H226; 17.3 µM (inactive) in the assay with SF-539; > 52.4 µM (inactive) in the assay on SN12C; 0.119 µM (active) with MCF7; > 87.1 µM (inactive) with UO-31. Moreover, the GI50 with MDA-MB-231 was 23.6 µM (inactive); with SK-OV-3, 13.6 µM (inactive); in the assay on NCI/ADR-RES, 32.7 µM (inactive); with K562, 0.449 µM (active); with A498, 0.0349 µM (active); in the assay with TK-10, < 0.01 µM (active).

As for `O=C(c1ccc(Cl)c(Cl)c1)N(Cc1cccnc1)C(=S)N(Cc1cccnc1)C(=O)c1ccc(Cl)c(Cl)c1`, the GI50 in the assay with Malme-3M was 52.8 µM (inactive); in the assay on PC-3, 22.1 µM (inactive); in the assay on SK-MEL-2, 25.1 µM (inactive); in the assay with HCT-15 it was 20 µM; in the assay with U-251 it was 29.3 µM (inactive); in the assay with A549, > 100 µM (inactive). For the same compound, the GI50 was 49.3 µM (inactive) in the assay on HL-60; 31.8 µM (inactive) in the assay on NCI-H226; 22.1 µM (inactive) in the assay on SF-539; 24.1 µM (inactive) with SN12C; 7.06 µM (inactive) with MCF7; 17.9 µM (inactive) in the assay with UO-31. Also, the GI50 in the assay with MDA-MB-231 is 33.1 µM (inactive); in the assay on SK-OV-3 it was > 100 µM (inactive); in the assay on NCI/ADR-RES, 31.3 µM (inactive); in the assay with K562 it was 30.3 µM (inactive); in the assay with A498 it was 33.9 µM (inactive); with TK-10 it was 29.9 µM (inactive).

Consider `O=c1[nH]c2ccc(Cl)cc2o1`, for which the GI50 in the assay with Malme-3M is > 100 µM (inactive); in the assay with PC-3, > 100 µM (inactive); in the assay on HCT-15, more than 100 µM; with U-251, > 100 µM (inactive); in the assay with IGROV-1, > 100 µM (inactive); in the assay with A549 it was > 100 µM (inactive). For the same compound, the GI50 in the assay with HL-60, with NCI-H226, in the assay on SF-539, in the assay on SN12C, in the assay with MCF7 and with UO-31 was > 100 µM (inactive) throughout. The GI50 in the assay with MDA-MB-231, in the assay with SK-OV-3, in the assay on NCI/ADR-RES, in the assay on K562, with A498 and in the assay with TK-10 was > 100 µM (inactive) each time.

In the case of `OC(c1cc2ccccc2[nH]1)C1(c2cccnc2)SCCCS1` (stereo not drawn), the GI50 in the assay on Malme-3M is 87.3 µM (inactive); with PC-3 it was 38.5 µM (inactive); in the assay with SK-MEL-2, 19.1 µM (inactive); with HCT-15 it was 84.7 µM; in the assay on U-251 it was 47.1 µM (inactive); in the assay with IGROV-1, 53.8 µM (inactive). Moreover, the GI50 in the assay on A549 is 47.6 µM (inactive); in the assay on HL-60, 26.2 µM (inactive); in the assay on NCI-H226 it was > 100 µM (inactive); in the assay on SN12C, 99.3 µM (inactive); with MCF7, 39.5 µM (inactive); in the assay with UO-31 it was 25.2 µM (inactive). For the same compound, the GI50 in the assay on MDA-MB-231 was 23.1 µM (inactive); in the assay on SK-OV-3, > 100 µM (inactive); with NCI/ADR-RES, 53.3 µM (inactive); in the assay on K562, 27.2 µM (inactive); in the assay with A498, 17.9 µM (inactive); in the assay with TK-10, > 100 µM (inactive).

As for `OC(CC1CCCCN1)c1ccc2c(c1)oc1ccccc12` (stereo not drawn), the GI50 in the assay on Malme-3M was 38.9 µM (inactive); with PC-3, 71 µM (inactive); in the assay with SK-MEL-2, 34 µM (inactive); with HCT-15 it was 52.2 µM; in the assay on U-251, > 100 µM (inactive); with IGROV-1 it was 55.6 µM (inactive). Further, the GI50 in the assay on A549 was > 100 µM (inactive); with HL-60, > 100 µM (inactive); in the assay on NCI-H226, 74.5 µM (inactive); with SF-539, 46.1 µM (inactive); in the assay with SN12C, > 100 µM (inactive); in the assay with MCF7, 83 µM (inactive). Moreover, the GI50 in the assay with UO-31 was 37.2 µM (inactive); in the assay on MDA-MB-231, > 100 µM (inactive); with SK-OV-3, > 100 µM (inactive); in the assay on NCI/ADR-RES, > 100 µM (inactive); in the assay with K562, 39.5 µM (inactive); in the assay with A498, 23.4 µM (inactive). Further, the GI50 in the assay on TK-10 is 72.1 µM (inactive).

Turning to `CCn1sc2ccccc2c1=O`, the GI50 with Malme-3M is 15.8 µM (inactive); with PC-3, 14.3 µM (inactive); with SK-MEL-2, 21.7 µM (inactive); in the assay on HCT-15, 7.94 µM; in the assay on U-251, 6 µM (inactive); in the assay with IGROV-1, 6.73 µM (inactive). The GI50 with A549 is 16.1 µM (inactive); in the assay on HL-60, 3.78 µM (inactive); with NCI-H226, 24.1 µM (inactive); with SF-539, 13.5 µM (inactive); with SN12C it was 5.32 µM (inactive); with MCF7, 8.77 µM (inactive). Besides, the GI50 is 9.57 µM (inactive) in the assay on MDA-MB-231; 36 µM (inactive) in the assay on SK-OV-3; 18.2 µM (inactive) in the assay on NCI/ADR-RES; 4.58 µM (inactive) with K562; 37.8 µM (inactive) in the assay with A498; 16.5 µM (inactive) in the assay with TK-10.

With `COC(=N)C12C(N)=NC(OC)(OC)C1(C#N)C21C(=O)N(c2ccccc2)N=C1C` (stereo not drawn), the GI50 with Malme-3M is > 100 µM (inactive); with PC-3, > 100 µM (inactive); in the assay on SK-MEL-2 it was > 100 µM (inactive); in the assay with HCT-15, more than 100 µM; in the assay with U-251, > 100 µM (inactive); with IGROV-1, > 100 µM (inactive). Moreover, the GI50 in the assay with A549, in the assay on HL-60, in the assay on NCI-H226, with SF-539, in the assay on SN12C and with MCF7 was > 100 µM (inactive) throughout. Further, the GI50 with UO-31, with MDA-MB-231, with SK-OV-3, in the assay on NCI/ADR-RES, in the assay with K562 and in the assay with A498 was > 100 µM (inactive) in each case.

On to `Cc1c2c(n3c(nc4ccccc43)c1C#N)NCC2`, for which the GI50 in the assay with Malme-3M was > 10 µM (inactive); in the assay with PC-3, > 10 µM (inactive); with HCT-15 it was more than 10 µM; in the assay on U-251 it was > 10 µM (inactive); in the assay on IGROV-1, > 10 µM (inactive); in the assay with A549, > 10 µM (inactive). The GI50 in the assay with HL-60, with NCI-H226, with SF-539, in the assay with SN12C, with MCF7 and in the assay with UO-31 was > 10 µM (inactive) throughout. Further, the GI50 in the assay with MDA-MB-231, in the assay on SK-OV-3, in the assay with NCI/ADR-RES, in the assay on K562, with A498 and with TK-10 was > 10 µM (inactive) throughout.

`COc1ncc(C#CC(=O)c2ccccc2)c(OC)n1`: the GI50 in the assay on Malme-3M was 1.67 µM (inactive); with PC-3, 1.89 µM (inactive); in the assay with SK-MEL-2 it was 5.07 µM (inactive); in the assay on HCT-15, 1.37 µM; in the assay on U-251 it was 4.71 µM (inactive); in the assay with IGROV-1 it was 2.1 µM (inactive). Further, the GI50 in the assay on A549 was 11.6 µM (inactive); with HL-60 it was 1.23 µM (inactive); in the assay on NCI-H226, 2.07 µM (inactive); in the assay with SN12C it was 1.4 µM (inactive); in the assay with MCF7, 0.378 µM (active); in the assay on UO-31, 2.03 µM (inactive). For the same compound, the GI50 in the assay on MDA-MB-231 was 1.95 µM (inactive); in the assay with SK-OV-3 it was 19.7 µM (inactive); with NCI/ADR-RES it was 2.72 µM (inactive); with K562, 0.726 µM (active); in the assay on A498 it was 17.9 µM (inactive); with TK-10 it was 1.67 µM (inactive).

Regarding `c1ccc2[nH]c(-c3cscn3)nc2c1` [THIABENDAZOLE], the GI50 with Malme-3M was > 100 µM (inactive); in the assay on PC-3 it was > 100 µM (inactive); in the assay on SK-MEL-2, > 100 µM (inactive); in the assay with HCT-15, more than 100 µM; with U-251 it was > 100 µM (inactive); in the assay with IGROV-1, > 100 µM (inactive). In addition, the GI50 in the assay on A549, in the assay with HL-60, in the assay with NCI-H226, in the assay with SF-539, with SN12C and in the assay on MCF7 was > 100 µM (inactive) throughout. Also, the GI50 in the assay with MDA-MB-231 was > 100 µM (inactive); in the assay on SK-OV-3 it was > 100 µM (inactive); with NCI/ADR-RES, > 100 µM (inactive); in the assay on K562, > 100 µM (inactive) and 83.6 µM (inactive); in the assay with A498, > 100 µM (inactive); in the assay on TK-10, > 100 µM (inactive).
